PubChem BioAssay (NCI)
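Step 1: Grow cells in 96-well plates. Step 2: Expose to compound for 48 hours at 5 concentrations. Step 3: Interpolate endpoints linearly; if unreached, use highest concentration. The concentration for 50% growth inhibition is given as GI50. TGI denotes the concentration required for complete inhibition of growth.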

Columns and labels:
Experiment in all cases: inhibition of tumour cell growth, NCI panel, 48 h
MDA-MB-435 = system: MDA-MB-435
SF-268 CNS = system: SF-268 CNS
BT-549 breast = system: BT-549 breast
CCRF-CEM leukemia = system: CCRF-CEM leukemia
ACHN renal = system: ACHN renal
HCT-116 colon = system: HCT-116 colon
COLO 205 colon = system: COLO 205 colon
RXF 393 renal = system: RXF 393 renal
UACC-62 melanoma = system: UACC-62 melanoma
SK-OV-3 ovarian = system: SK-OV-3 ovarian
A549 NSCLC = system: A549 NSCLC
PC-3 prostate = system: PC-3 prostate
OVCAR-3 ovarian = system: OVCAR-3 ovarian
OVCAR-4 ovarian = system: OVCAR-4 ovarian
SR leukemia = system: SR leukemia
SK-MEL-2 melanoma = system: SK-MEL-2 melanoma
MALME-3M melanoma = system: MALME-3M melanoma
SNB-19 CNS = system: SNB-19 CNS
SNB-75 CNS = system: SNB-75 CNS
UO-31 renal = system: UO-31 renal
SN12C renal = system: SN12C renal
DU-145 prostate = system: DU-145 prostate
HCT-15 colon = system: HCT-15 colon
MOLT-4 leukemia = system: MOLT-4 leukemia
RPMI-8226 leukemia = system: RPMI-8226 leukemia
T-47D breast = system: T-47D breast
CAKI-1 renal = system: CAKI-1 renal
K-562 leukemia = system: K-562 leukemia
NCI/ADR-RES ovarian = system: NCI/ADR-RES ovarian
NCI-H522 lung = system: NCI-H522 lung
A498 renal = system: A498 renal
MDA-MB-231 breast = system: MDA-MB-231 breast
HS 578T breast = system: HS 578T breast
UACC-257 melanoma = system: UACC-257 melanoma
LOX IMVI melanoma = system: LOX IMVI melanoma
SK-MEL-5 melanoma = system: SK-MEL-5 melanoma
SK-MEL-28 melanoma = system: SK-MEL-28 melanoma
HOP-92 NSCLC = system: HOP-92 NSCLC
MCF7 breast = system: MCF7 breast
M14 melanoma = system: M14 melanoma
TK-10 renal = system: TK-10 renal
SW-620 colon = system: SW-620 colon
KM12 colon = system: KM12 colon
HOP-62 NSCLC = system: HOP-62 NSCLC
OVCAR-5 ovarian = system: OVCAR-5 ovarian
OVCAR-8 ovarian = system: OVCAR-8 ovarian
HCC-2998 colon = system: HCC-2998 colon
786-0 renal = system: 786-0 renal
HT29 colon = system: HT29 colon
U251 CNS = system: U251 CNS
NCI-H460 lung = system: NCI-H460 lung
HL-60(TB) leukemia = system: HL-60(TB) leukemia
IGROV1 ovarian = system: IGROV1 ovarian
SF-295 CNS = system: SF-295 CNS
SF-539 CNS = system: SF-539 CNS
EKVX NSCLC = system: EKVX NSCLC

CN1CCN(c2nc(-c3csc(-c4ccccc4)n3)cc3ccccc23)CC1
GI50 (MDA-MB-435): 1.78 µM | TGI (MDA-MB-435): 3.47 µM | GI50 (SF-268 CNS): 4.67 µM | TGI (SF-268 CNS): 19.4 µM | GI50 (BT-549 breast): 13 µM | TGI (BT-549 breast): 36.4 µM | GI50 (CCRF-CEM leukemia): 1.96 µM | TGI (CCRF-CEM leukemia): 4.34 µM | GI50 (ACHN renal): 2.1 µM | TGI (ACHN renal): 4.77 µM | GI50 (HCT-116 colon): 1.61 µM | TGI (HCT-116 colon): 2.98 µM | GI50 (COLO 205 colon): 1.68 µM | TGI (COLO 205 colon): 3.19 µM | GI50 (RXF 393 renal): 1.96 µM | TGI (RXF 393 renal): 5.22 µM | GI50 (UACC-62 melanoma): 1.93 µM | TGI (UACC-62 melanoma): 3.88 µM | GI50 (SK-OV-3 ovarian): 12.3 µM | TGI (SK-OV-3 ovarian): 28.2 µM | GI50 (A549 NSCLC): 10.3 µM | TGI (A549 NSCLC): 22.7 µM | GI50 (PC-3 prostate): 2.25 µM | TGI (PC-3 prostate): 6.25 µM | GI50 (OVCAR-3 ovarian): 3.04 µM | TGI (OVCAR-3 ovarian): 11.8 µM | GI50 (OVCAR-4 ovarian): 4.1 µM | TGI (OVCAR-4 ovarian): 19.8 µM | GI50 (SR leukemia): 1.58 µM | TGI (SR leukemia): 3.97 µM | GI50 (SK-MEL-2 melanoma): 14.1 µM | TGI (SK-MEL-2 melanoma): 29.2 µM | GI50 (MALME-3M melanoma): 2 µM | TGI (MALME-3M melanoma): 4.23 µM | GI50 (SNB-19 CNS): 5.52 µM | TGI (SNB-19 CNS): 21.3 µM | GI50 (SNB-75 CNS): 5.97 µM | TGI (SNB-75 CNS): 20.8 µM | GI50 (UO-31 renal): 2.19 µM | TGI (UO-31 renal): 8.18 µM | GI50 (SN12C renal): 3.45 µM | TGI (SN12C renal): 12.1 µM | GI50 (DU-145 prostate): 2.7 µM | TGI (DU-145 prostate): 7.98 µM | GI50 (HCT-15 colon): 1.85 µM | TGI (HCT-15 colon): 3.66 µM | GI50 (MOLT-4 leukemia): 2.02 µM | TGI (MOLT-4 leukemia): 4.04 µM | GI50 (RPMI-8226 leukemia): 2.09 µM | TGI (RPMI-8226 leukemia): 5.37 µM | GI50 (T-47D breast): 2.07 µM | TGI (T-47D breast): 5.53 µM | GI50 (CAKI-1 renal): 1.61 µM | TGI (CAKI-1 renal): 3.52 µM | GI50 (K-562 leukemia): 1.84 µM | TGI (K-562 leukemia): 3.66 µM | GI50 (NCI/ADR-RES ovarian): 1.93 µM | TGI (NCI/ADR-RES ovarian): 4.25 µM | GI50 (NCI-H522 lung): 1.93 µM | TGI (NCI-H522 lung): 4.44 µM | GI50 (A498 renal): 14.8 µM | TGI (A498 renal): 28.9 µM | GI50 (MDA-MB-231 breast): 1.94 µM | TGI (MDA-MB-231 breast): 4.38 µM | GI50 (HS 578T breast): 4.57 µM | TGI (HS 578T breast): 27.1 µM | GI50 (UACC-257 melanoma): 1.89 µM | TGI (UACC-257 melanoma): 4.19 µM | GI50 (LOX IMVI melanoma): 1.66 µM | TGI (LOX IMVI melanoma): 3.09 µM | GI50 (SK-MEL-5 melanoma): 3.26 µM | TGI (SK-MEL-5 melanoma): 12.1 µM | GI50 (SK-MEL-28 melanoma): 1.74 µM | TGI (SK-MEL-28 melanoma): 3.28 µM | GI50 (HOP-92 NSCLC): 1.88 µM | TGI (HOP-92 NSCLC): 7.63 µM | GI50 (MCF7 breast): 1.65 µM | TGI (MCF7 breast): 3.46 µM | GI50 (M14 melanoma): 1.8 µM | TGI (M14 melanoma): 3.55 µM | GI50 (TK-10 renal): 14.6 µM | TGI (TK-10 renal): 28.9 µM | GI50 (SW-620 colon): 1.63 µM | TGI (SW-620 colon): 3.12 µM | GI50 (KM12 colon): 1.95 µM | TGI (KM12 colon): 3.99 µM | GI50 (HOP-62 NSCLC): 2.58 µM | TGI (HOP-62 NSCLC): 10.6 µM | GI50 (OVCAR-5 ovarian): 3.23 µM | TGI (OVCAR-5 ovarian): 12.8 µM | GI50 (OVCAR-8 ovarian): 1.79 µM | TGI (OVCAR-8 ovarian): 3.79 µM | GI50 (HCC-2998 colon): 1.66 µM | TGI (HCC-2998 colon): 3.08 µM | GI50 (786-0 renal): 1.68 µM | TGI (786-0 renal): 3.34 µM | GI50 (HT29 colon): 1.75 µM | TGI (HT29 colon): 3.28 µM | GI50 (U251 CNS): 2.34 µM | TGI (U251 CNS): 6.22 µM | GI50 (NCI-H460 lung): 1.73 µM | TGI (NCI-H460 lung): 3.27 µM | GI50 (HL-60(TB) leukemia): 1.84 µM | TGI (HL-60(TB) leukemia): 3.91 µM | GI50 (IGROV1 ovarian): 1.88 µM | TGI (IGROV1 ovarian): 4.55 µM | GI50 (SF-295 CNS): 4.97 µM | TGI (SF-295 CNS): 17.6 µM | GI50 (SF-539 CNS): 1.79 µM | TGI (SF-539 CNS): 3.45 µM | GI50 (EKVX NSCLC): 3.36 µM | TGI (EKVX NSCLC): 13 µM
